Results published in patent US20130324489A1, “NEW ANTIFUNGAL COMPOSITIONS” (DSM IP ASSETS B.V., priority 2011, published 2013).

Tests used:
[1] = system: Botrytis cinerea; assay: In vitro antifungal activity, 96-well microtiter plates; format: cell-based; conditions: 1.25 ppm natamycin, 25° C.
Method: The following compositions were tested: […] After incubation of the microtiter plates at 25° C., the in vitro antifungal activity (%) of the individual active ingredients was assessed by calculating the reduction in mould growth observed in the presence of the active ingredient in comparison to the mould growth observed in the absence of the active ingredient. The expected antifungal activity (E in %) of the active ingredient combination was calculated according to the Colby equation (Colby, 1967): […] wherein X and Y are the observed antifungal activities (in %) of the individual active ingredients X and Y, respectively.

[2] = system: Penicillium italicum; assay: as above; format: cell-based; conditions: 0.63 ppm natamycin, 5.0 ppm vinclozolin, 10 ppm procymidone, alone or natamycin + one of them, 25° C., day 3
Method: Subsequently, 100 μl of a Botrytis cinerea suspension prepared in PCB medium was used to inoculated each well with 2.5×10^3 spores/ml.
After incubation of the microtiter plates at 25° C., the in vitro antifungal activity (%) of the individual active ingredients was assessed by calculating the reduction in mould growth observed in the presence of the active ingredient in comparison to the mould growth observed in the absence of the active ingredient. The expected antifungal activity (E in %) of the active ingredient combination was calculated according to the Colby equation (Colby, 1967): […]
wherein X and Y are the observed antifungal activities (in %) of the individual active ingredients X and Y, respectively. If the observed antifungal activity (O in %) of the combination exceeds the expected antifungal activity (E in %) of the combination and the resulting synergy factor O/E is thus >1.0, the combined application of the active ingredients leads to a synergistic antifungal effect.
The experiment was conducted as described in Example 10, except for the fact that the following compositions were tested:
Furthermore, Penicillium italicum was used for inoculation. The antifungal activity (in %) of the individual and combined active ingredients was determined according to the method described in Example 10.

SMILES	Observed antifungal activity O (%) ([1]; 3.0 ppm iprodione or both, day 5)	Observed antifungal activity O (%) ([1]; 8.0 ppm iprodione or both, day 12)	Observed antifungal activity O (%) [2]	Observed antifungal activity O (%) ([1]; 1.5 ppm vinclozolin, 1.25 ppm procymidone, alone or natamycin + one of them, day 3)	Observed antifungal activity O (%) ([1]; 1.5 ppm vinclozolin, 1.25 ppm procymidone, alone or natamycin + one of them, day 6)	Observed antifungal activity O (%) ([1]; 7.0 ppm vinclozolin, 2.0 ppm procymidone, alone or natamycin + one of them, day 10)
CC(C)NC(=O)N1CC(=O)N(c2cc(Cl)cc(Cl)c2)C1=O [Iprodione, iprodione]	50%	50%	–	–	–	–
C=CC1(C)OC(=O)N(c2cc(Cl)cc(Cl)c2)C1=O (stereo not drawn) [Vinclozolin, vinclozolin]	–	–	0%	0%	0%	0%
